Data from US5480885A, “Ergoline derivatives of 1-propinylamine, a process for the manufacture thereof and the use thereof for medicaments” (priority 1991, dated 1996).
“Also recorded” adds a separate entry of the source. Where two headings read alike, the source gives them in different places.

Assays:
pithed rats = test: vasoconstriction / diastolic pressure in pithed rats (Gillespie); format: in vivo, rat; conditions: vs control
5-HT1A receptors [1] = test: spontaneous tail-flicks in rats; format: in vivo, rat; conditions: 0.08 to 0.63 mg/kg s.c. (Example 1); 5.0 mg/kg s.c. (Example 2); in words
[2] = biological target: T1, 5-HT1A serotoninergic receptor (Homo sapiens, UniProt P08908); test: functional test, 5-HT1A serotoninergic receptor; conditions: in words
T1 sequence (P08908 1-422): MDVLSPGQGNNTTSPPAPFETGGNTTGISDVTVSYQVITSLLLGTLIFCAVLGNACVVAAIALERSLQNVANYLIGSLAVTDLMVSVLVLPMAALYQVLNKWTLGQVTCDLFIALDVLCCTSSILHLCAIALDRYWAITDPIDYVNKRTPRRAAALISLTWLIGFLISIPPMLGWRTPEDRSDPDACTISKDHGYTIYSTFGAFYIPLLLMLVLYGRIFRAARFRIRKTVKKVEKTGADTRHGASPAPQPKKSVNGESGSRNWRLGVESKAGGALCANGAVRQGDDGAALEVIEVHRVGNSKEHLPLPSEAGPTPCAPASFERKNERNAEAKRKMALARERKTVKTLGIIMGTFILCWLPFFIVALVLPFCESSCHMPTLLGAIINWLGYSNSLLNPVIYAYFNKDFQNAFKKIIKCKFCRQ

5-HT2 receptors = biological target: T2, 5-HT2 receptors (Mus musculus, UniProt P35363); test: inhibition of the head twitch response after 5-HTP/carbidopa; format: in vivo, mice; conditions: ip, mice, 5-hydroxytryptophan/carbidopa, read-out: ID50, inhibition of head twitch response
T2 construct: The head twitch model in mice; from tissue; host or cells: living mice (central nervous system)
T2 sequence (P35363 whole entry): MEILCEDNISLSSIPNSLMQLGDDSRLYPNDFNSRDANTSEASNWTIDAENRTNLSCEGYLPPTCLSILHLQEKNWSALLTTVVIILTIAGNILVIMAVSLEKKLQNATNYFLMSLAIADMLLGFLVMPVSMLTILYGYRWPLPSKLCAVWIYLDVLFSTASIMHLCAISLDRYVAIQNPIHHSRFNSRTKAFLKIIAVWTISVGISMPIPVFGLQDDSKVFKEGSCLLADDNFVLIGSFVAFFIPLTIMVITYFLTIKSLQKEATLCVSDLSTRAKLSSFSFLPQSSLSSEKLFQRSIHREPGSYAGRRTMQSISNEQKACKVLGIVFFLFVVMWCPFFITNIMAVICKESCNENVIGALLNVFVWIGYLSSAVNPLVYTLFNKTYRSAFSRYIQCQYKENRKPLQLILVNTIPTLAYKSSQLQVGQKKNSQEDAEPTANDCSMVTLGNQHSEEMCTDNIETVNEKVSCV
Method: The substance was injected 15 minutes prior to DL-5-HTP. The head twitch was recorded from 30 to 35 minutes after the DL-5-HTP injection (modified method according to Handley and Singh, Br. J. Pharmacol. 86, 297 (1985)).
The compound was injected 15 minutes prior to L-5-HTP (modified method according to Handley and Singh, Br. J. Pharmacol. 86, 297 (1985)).
The head twitch model in mice represents an experimental model for determining the hallucinogenic action of a compound (the method was described by Handley and Singh, Br.J.Pharmacol., 86, 297-303, 1985). It is believed that the response is conveyed via the 5-HT2 receptors.

uterus in rats = test: blocking of spontaneous uterus contractions in rats; conditions: Rattus norvegicus; 1000 ng/ml
Method: At a concentration of 1000 ng/ml it caused a 100% blocking of spontaneous uterus contractions in rats (see Jalon).

5-HT1A receptors [3] = test: inhibition of 8-OH-DPAT-caused spontaneous tail-flick in rats; format: in vivo, rat; conditions: in words
sigma receptor [4] = test: binding at [^3 H] DTG binding site; conditions: in words
[5] = biological target: T3, isolated rabbit thoracic aorta (serotonin) (Oryctolagus cuniculus, UniProt G1SYA7); conditions: for mode of inhibition of serotonin constriction: in words
T3 construct: isolated rabbit thoracic aorta; from tissue; host or cells: isolated rabbit thoracic aorta
T3 sequence (G1SYA7 entry or part of it): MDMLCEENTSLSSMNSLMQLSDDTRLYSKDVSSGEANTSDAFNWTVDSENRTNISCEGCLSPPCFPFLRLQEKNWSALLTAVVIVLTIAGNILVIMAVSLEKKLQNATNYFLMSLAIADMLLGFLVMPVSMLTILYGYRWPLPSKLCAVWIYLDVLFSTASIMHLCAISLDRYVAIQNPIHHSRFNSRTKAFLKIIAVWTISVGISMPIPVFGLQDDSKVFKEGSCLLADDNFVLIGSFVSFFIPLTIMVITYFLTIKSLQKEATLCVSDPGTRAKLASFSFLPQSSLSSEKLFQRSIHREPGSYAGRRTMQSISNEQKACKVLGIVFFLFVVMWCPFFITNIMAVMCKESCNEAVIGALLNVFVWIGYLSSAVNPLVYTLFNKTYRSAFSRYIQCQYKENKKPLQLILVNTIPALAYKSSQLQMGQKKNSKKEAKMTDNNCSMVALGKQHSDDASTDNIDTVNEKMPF

[6] = biological target: T1, 5-HT1A serotoninergic receptor; test: binding at [^3 H] 8-OH-DPAT binding site; conditions: for affinity to 5-HT1A receptor: [^3 H] 8-OH-DPAT, in words
Source text: (§1) Binding affinities of the compounds of Examples 1

5-HT2 receptor = 5-HT2 receptor (Homo sapiens, UniProt P28223); test: biochemical; format: binding; conditions: for affinity for 5-HT2 receptors: in words
5-HT2 receptor, sequence (P28223 whole entry): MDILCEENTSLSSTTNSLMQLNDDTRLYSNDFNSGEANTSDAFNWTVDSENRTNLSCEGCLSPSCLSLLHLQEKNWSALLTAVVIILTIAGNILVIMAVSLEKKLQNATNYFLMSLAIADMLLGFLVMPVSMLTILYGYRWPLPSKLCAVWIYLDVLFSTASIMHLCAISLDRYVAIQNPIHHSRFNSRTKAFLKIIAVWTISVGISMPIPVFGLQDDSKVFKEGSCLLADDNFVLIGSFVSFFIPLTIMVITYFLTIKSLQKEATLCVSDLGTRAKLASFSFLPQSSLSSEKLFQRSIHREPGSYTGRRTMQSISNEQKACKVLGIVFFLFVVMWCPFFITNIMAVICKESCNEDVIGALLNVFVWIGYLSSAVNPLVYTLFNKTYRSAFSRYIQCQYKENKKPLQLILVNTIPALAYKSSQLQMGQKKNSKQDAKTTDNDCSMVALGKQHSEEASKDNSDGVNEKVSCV
Source text: as §1

pupil = test: dilatation of the pupil in mice (Pulewka); format: in vivo; conditions: 5 mg/kg i.p.; in words
[7] = test system: isolated rat uterus (serotonin); test: inhibition of serotonin-induced contractions of the isolated rat uterus; conditions: serotonin-induced contractions (serotonin 2.47×10^-8 M where printed)
D2 receptor = D2 receptor (Homo sapiens, UniProt P14416); test: binding, [^3 H]Raclopride; conditions: for Ki: D2, [^3 H]Raclopride; for affinity for D2 receptors: in words
D2 receptor, sequence (P14416 whole entry): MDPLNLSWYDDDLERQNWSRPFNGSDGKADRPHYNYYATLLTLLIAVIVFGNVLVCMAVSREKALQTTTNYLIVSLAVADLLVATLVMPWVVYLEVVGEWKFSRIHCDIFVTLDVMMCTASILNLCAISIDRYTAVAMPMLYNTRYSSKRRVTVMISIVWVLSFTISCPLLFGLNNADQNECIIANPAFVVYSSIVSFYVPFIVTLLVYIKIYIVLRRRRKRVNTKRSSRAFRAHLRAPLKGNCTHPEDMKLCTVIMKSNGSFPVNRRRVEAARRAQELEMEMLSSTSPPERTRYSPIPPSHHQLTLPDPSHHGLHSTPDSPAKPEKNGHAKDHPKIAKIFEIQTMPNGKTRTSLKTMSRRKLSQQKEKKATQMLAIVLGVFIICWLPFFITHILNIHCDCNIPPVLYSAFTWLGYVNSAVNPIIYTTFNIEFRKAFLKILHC
Source text: as §1

[8] = test system: pentobarbital-anesthetized normotensive rats; test: blood pressure and heart rate in pentobarbital-anesthetized normotensive rats; format: in vivo, rat; conditions: 450 μg/kg i.v.; for maximum reduction in carotid artery pressure / reduction in heart rate: vs initial level
sigma receptor [9] = test: functional test, sigma receptor; conditions: in words
catalepsy in rats = format: in vivo, rat; conditions: rat, in vivo, sc; rats
Method: (§2) The s.c. application of the compounds of Example 5 (0.5 to 16 mg/kg) and of Example 8 (0.125 to 4 mg/kg), respectively, caused catalepsy in rats (the method was described by Morelli and Chiara, Europ. J. Pharmacol. 117, 179-185, 1985).

rats = test: catalepsy in rats; format: in vivo, rat; conditions: in words
Method: as §2

α1 receptor = test: binding, [^3 H]Prazosin
Source text: (§3) Binding affinities of the compounds of Examples 5

[10] = test system: isolated rabbit vena cava (noradrenaline); test: inhibition of noradrenaline venous constriction on the isolated rabbit vena cava; conditions: vs noradrenaline
[11] = prolongation of pentobarbital-induced anesthesia in mice; conditions: mouse, in vivo, ip
D1 receptor = D1 receptor (Homo sapiens, UniProt P21728); test: binding, [^3 H]SCH23390
D1 receptor, sequence (P21728 whole entry): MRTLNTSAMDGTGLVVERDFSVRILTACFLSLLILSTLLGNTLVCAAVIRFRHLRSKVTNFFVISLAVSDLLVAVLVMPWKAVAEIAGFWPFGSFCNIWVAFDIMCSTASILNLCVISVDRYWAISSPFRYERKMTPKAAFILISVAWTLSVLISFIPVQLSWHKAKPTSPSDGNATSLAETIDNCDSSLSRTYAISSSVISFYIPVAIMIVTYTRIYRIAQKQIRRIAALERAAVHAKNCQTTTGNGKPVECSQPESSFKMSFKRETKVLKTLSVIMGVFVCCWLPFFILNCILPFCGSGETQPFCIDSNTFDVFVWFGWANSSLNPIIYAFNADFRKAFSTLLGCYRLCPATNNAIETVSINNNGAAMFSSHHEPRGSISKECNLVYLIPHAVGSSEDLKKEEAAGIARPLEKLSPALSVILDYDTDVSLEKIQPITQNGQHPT
Source text: as §3

[12] = test system: urethane-anestetized normotensive rats; test: adrenaline-induced vasopressoric response in urethane-anesthetized normotensive rats; format: in vivo, rat; conditions: 450 μg/kg i.v.; adrenaline 10 μg/kg i.v.
Method: In urethane-anestetized normotensive rats the compound (450 μg/kg, i.v.) intensified the adrenaline (10 μg/kg, i.v.)-induced vasopressoric response.

[13] = test system: isolated rabbit thoracic aorta (noradrenaline); test: inhibition of the constrictive activity of noradrenaline on the isolated rabbit thoracic aorta
acetylcholine receptors = test: oxotremorine-induced tremor in mice; format: in vivo; conditions: 20 to 70 mg/kg i.p.; oxotremorine 1.5 mg/kg s.c.; in words
D2 receptors [14] = biological target: T4, D2 receptors (Mus musculus, UniProt P61168); test: apomorphine-induced climbing in mice; format: in vivo; conditions: ip, -30 min., apomorphine 1.5 mg/kg s.c., read-out: ID50, climbing behavior
T4 construct: from tissue; host or cells: living mice (central nervous system)
T4 sequence (P61168 whole entry): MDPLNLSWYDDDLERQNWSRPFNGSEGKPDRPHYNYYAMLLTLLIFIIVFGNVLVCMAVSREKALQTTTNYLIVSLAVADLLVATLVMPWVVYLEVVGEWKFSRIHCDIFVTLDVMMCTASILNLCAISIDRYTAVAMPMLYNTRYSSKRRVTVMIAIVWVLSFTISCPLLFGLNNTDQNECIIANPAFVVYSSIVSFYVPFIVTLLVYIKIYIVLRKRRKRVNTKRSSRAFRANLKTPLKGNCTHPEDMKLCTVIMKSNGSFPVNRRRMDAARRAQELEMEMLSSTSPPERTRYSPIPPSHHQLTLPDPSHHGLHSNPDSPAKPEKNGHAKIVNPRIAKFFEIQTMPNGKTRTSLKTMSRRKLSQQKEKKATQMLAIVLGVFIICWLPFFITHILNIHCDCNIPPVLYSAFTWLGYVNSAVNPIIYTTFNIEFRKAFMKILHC
Method: The application of apomorphine in a dose of 1.5 mg/kg s.c. caused a characteristic climbing behavior in mice.

M1 muscarinic receptor [15] = test: binding at [^3 H] pirenzepine binding site; conditions: in words
isolated rat uterus = test: uterotonic activity (isolated rat uterus); conditions: in words
[16] = overall antipsychotic action and side-effect profile (summary statements); format: in vivo; conditions: in words
M1 muscarinic receptor [17] = test: functional test, M1 muscarinic receptor; conditions: in words
[18] = test system: isolated rabbit vena cava inferior; test: venous constriction on the isolated rabbit vena cava inferior; conditions: 1×10^-7 M; in words
α1 receptors = test: noradrenaline-induced lethality in rats; format: in vivo, rat; conditions: s.c.
D2 receptors [19] = biological target: T5, D2 receptors (Rattus norvegicus, UniProt P61169); test: apomorphine-induced locomotion; format: in vivo; conditions: sc, -45 min., apomorphine 0.4 mg/kg s.c., rats, read-out: ID50, apomorphine-induced locomotion
T5 construct: from tissue; host or cells: living rats (central nervous system)
T5 sequence (P61169 whole entry): as the sequence (P61168 whole entry) above, with P29A counted along it

[20] = blood pressure and heart rate in pentobarbital-anesthetized normotensive rats; format: in vivo, rat; conditions: rat, in vivo, iv; normotensive rats, pentobarbital-induced anesthesia; read-out: ED50, decrease of the mean arterial blood pressure
mice = test: spontaneous motor activity in mice; format: in vivo; conditions: two models (motor activity and pentobarbital anesthesia); vs haloperidol; in words
[21] = spontaneous motor activity in mice; format: in vivo; conditions: mouse, in vivo, ip; mice; read-out: ID50, inhibition of spontaneous motor activity

## C#CCNC(=O)[C@@H]1C=C2c3cccc4[nH]c(Br)c(c34)C[C@H]2N(C)C1 [Example 2, 2-Bromo-9,10-didehydro-N-(2'-propinyl)-6-methylergoline-8β-carboxamide]
Pithed rats; 450 μg/kg i.p.
  mean increase of the diastolic pressure: 20%
5-HT1A receptors [1]
  spontaneous tail-flick: did not cause a spontaneous tail-flick in rats
[2]
  functional activity at 5-HT1A: did not indicate any activity
5-HT2 receptors
  ED50: 8.2 mg/kg
Uterus in rats
  inhibition at 1 µg/mL: 100%
5-HT1A receptors [3]; 0.63 to 5.0 mg/kg s.c., 8-OH-DPAT 2.5 mg/kg s.c.
  inhibition of 8-OH-DPAT-caused spontaneous tail-flick: strongly inhibit the spontaneous tail-flick in rats
5-HT1A receptors [3]
  effect in tail-flick inhibition model compared with buspirone: very similar to that of buspirone
Sigma receptor [4]
  affinity to sigma receptor: possessed affinity
[5]
  mode of inhibition of serotonin constriction: competitively inhibited
[5]; vs serotonin, read-out: pA2 (converted)
  Kb: 0.00741 µM
[6]; 5-HT1A, [^3 H]8-OH-DPAT
  Ki: 0.206 µM
[6]
  affinity to 5-HT1A receptor: somewhat lower affinity; also recorded: possessed affinity
5-HT2 receptor; 5-HT2, [^3 H]Ketanserin, read-out: Ki
  Ki: 0.09 µM
5-HT2 receptor
  affinity for 5-HT2 receptors: high affinity
pupil
  dilatation of the pupil: marked dilatation of the pupil
[7]
  IC50: 0.0269 µM
D2 receptor
  Ki: 0.044 µM
  affinity for D2 receptors: high affinity
[8]
  duration of the transient effect: up to 20 minutes
  maximum reduction in carotid artery pressure: 15%
  reduction in heart rate: 5%
Sigma receptor [9]
  functional activity at sigma receptor: indicated an antagonistic activity

## C#CCN(C)C[C@@H]1C=C2c3cccc4[nH]cc(c34)C[C@H]2N(C)C1 [Example 8]
Pithed rats; 450 μg/kg i.v.
  mean increase in diastolic pressure: 20%
Catalepsy in rats
  ED50: 0.29 mg/kg
rats
  cataleptic action compared with haloperidole: lesser than the action caused by the typical antipsychotic haloperidole
α1 receptor; in words
  affinity for α1 receptors: lower
α1 receptor; α1, [^3 H]Prazosin
  Ki: 0.245 µM
[10]
  pA2: 6.63
[2]
  functional activity at 5-HT1A: did not indicate any activity
[11]
  ED50: 17.1 mg/kg
D1 receptor; D1, [^3 H]SCH23390
  Ki: 0.087 µM
D1 receptor; in words
  affinity for D1 receptors: lower
Sigma receptor [4]
  affinity to sigma receptor: possessed affinity
[12]
  effect on adrenaline-induced vasopressoric response: intensified
[5]
  Kb: 0.000741 µM
  mode of inhibition of serotonin constriction: competitively inhibited
[6]
  affinity to 5-HT1A receptor: possessed affinity
[13]; in words
  mode of inhibition of noradrenaline constriction: competitively inhibited
[13]; vs noradrenaline
  pA2: 6.39
5-HT2 receptor
  Ki: 0.01 µM
  affinity for 5-HT2 receptors: high affinity
pupil
  dilatation of the pupil: strong dilatation of the pupil
Acetylcholine receptors
  inhibition of oxotremorine-induced tremor: dose-dependent inhibition
D2 receptors [14]
  ED50: 0.44 mg/kg
[7]
  IC50: 0.00185 µM
M1 muscarinic receptor [15]
  affinity to M1 muscarinic receptor: possessed affinity
Isolated rat uterus
  uterotonic activity: no uterotonic activity
[16]
  antipsychotic action: strongest antipsychotic action
  side effect liability: lesser degree of probability of the development of extrapyramidal, central depressant and hypotensive side effects
M1 muscarinic receptor [17]
  functional activity at M1 muscarinic receptor: indicated an antagonistic activity
[18]
  venous constriction: minimal venous constriction
α1 receptors
  ID50, noradrenaline-induced lethality: 3.75 mg/kg
D2 receptors [19]
  ED50: 0.089 mg/kg
D2 receptor
  Ki: 0.0038 µM
  affinity for D2 receptors: high affinity
[8]; in words
  effect on carotid artery pressure: strong and sustained decrease in carotid artery pressure
[8]
  maximum reduction in carotid artery pressure: 20%
  reduction in heart rate: less than 20%
[20]
  ED50: 0.37 mg/kg
mice
  depressant action on the level of CNS: several times lower depressant action on the level of CNS if compared with haloperidol
[21]
  ED50: 8.4 mg/kg
Sigma receptor [9]
  functional activity at sigma receptor: indicated an antagonistic activity
